Measurements as given in PMC10175918 (Communications Biology, 2023).
Read-outs that look alike come from different tables or passages of the source.

Tests used:
Test in all cases: TGFα-shedding assay-based GPCR screening with chimeric Gα subunit proteins
Format in all cases: cell-based
[1] = biological target: T1, 348 GPCRs (Homo sapiens, UniProt O00421); conditions: 10µM, Favipiravir 100μM
T1 construct: expressed in transfected cells; host or cells: HEK293A
T1 sequence (O00421 1-344): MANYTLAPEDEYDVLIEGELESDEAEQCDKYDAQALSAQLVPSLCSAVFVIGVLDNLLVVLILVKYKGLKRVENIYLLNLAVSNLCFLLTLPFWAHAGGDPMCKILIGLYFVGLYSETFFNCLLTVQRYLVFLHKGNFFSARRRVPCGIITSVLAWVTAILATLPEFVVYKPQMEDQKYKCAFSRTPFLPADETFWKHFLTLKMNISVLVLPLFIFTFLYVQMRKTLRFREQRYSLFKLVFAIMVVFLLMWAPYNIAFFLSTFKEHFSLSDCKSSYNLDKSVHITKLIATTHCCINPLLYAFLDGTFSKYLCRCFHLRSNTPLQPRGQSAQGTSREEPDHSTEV

[2] = biological target: T2, 348 GPCRs (Homo sapiens, UniProt Q15077)
T2 construct: expressed in transfected cells; host or cells: HEK293A
T2 sequence (Q15077 whole entry): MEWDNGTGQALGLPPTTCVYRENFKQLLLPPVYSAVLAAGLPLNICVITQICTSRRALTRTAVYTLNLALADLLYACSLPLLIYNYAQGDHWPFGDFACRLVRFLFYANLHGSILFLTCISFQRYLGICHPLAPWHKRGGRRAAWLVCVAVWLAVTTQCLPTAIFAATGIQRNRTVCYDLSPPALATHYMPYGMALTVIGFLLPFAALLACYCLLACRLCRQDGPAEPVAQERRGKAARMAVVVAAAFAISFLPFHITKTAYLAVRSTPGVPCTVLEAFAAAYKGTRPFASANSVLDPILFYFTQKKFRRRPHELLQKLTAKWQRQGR

[3] = biological target: T3, 348 GPCRs (Homo sapiens, UniProt Q7Z7M1); conditions: 10µM, Favipiravir 100μM
T3 construct: expressed in transfected cells; host or cells: HEK293A
T3 sequence (Q7Z7M1 whole entry): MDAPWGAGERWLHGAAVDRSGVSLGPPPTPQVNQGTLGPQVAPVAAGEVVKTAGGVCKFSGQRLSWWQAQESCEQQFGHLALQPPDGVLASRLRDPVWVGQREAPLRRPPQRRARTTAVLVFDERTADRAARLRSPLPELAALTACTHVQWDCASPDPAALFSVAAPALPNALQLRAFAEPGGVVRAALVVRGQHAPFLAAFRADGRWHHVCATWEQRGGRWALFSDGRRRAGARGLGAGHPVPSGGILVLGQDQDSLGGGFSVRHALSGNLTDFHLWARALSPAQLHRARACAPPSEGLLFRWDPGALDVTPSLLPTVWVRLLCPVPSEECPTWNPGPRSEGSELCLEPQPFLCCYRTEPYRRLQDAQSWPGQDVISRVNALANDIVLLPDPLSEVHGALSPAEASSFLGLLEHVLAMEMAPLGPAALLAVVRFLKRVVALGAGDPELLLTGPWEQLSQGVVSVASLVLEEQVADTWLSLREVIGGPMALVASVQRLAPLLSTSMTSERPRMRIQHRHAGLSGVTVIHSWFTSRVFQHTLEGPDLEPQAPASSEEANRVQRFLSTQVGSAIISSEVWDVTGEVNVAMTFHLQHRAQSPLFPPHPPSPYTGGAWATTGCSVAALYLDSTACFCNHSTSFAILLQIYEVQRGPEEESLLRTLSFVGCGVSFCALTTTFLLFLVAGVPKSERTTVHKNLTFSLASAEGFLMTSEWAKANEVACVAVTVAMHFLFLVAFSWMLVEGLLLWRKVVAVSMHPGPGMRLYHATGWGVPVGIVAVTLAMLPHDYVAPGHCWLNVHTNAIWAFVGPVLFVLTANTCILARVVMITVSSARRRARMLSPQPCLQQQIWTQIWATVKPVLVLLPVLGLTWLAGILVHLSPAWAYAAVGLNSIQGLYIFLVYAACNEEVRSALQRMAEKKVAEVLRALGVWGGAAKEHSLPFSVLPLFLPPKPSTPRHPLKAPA

[4] = biological target: T4, 348 GPCRs (Homo sapiens, UniProt O14626); conditions: 10µM, Favipiravir 100μM
T4 construct: expressed in transfected cells; host or cells: HEK293A
T4 sequence (O14626 1-319): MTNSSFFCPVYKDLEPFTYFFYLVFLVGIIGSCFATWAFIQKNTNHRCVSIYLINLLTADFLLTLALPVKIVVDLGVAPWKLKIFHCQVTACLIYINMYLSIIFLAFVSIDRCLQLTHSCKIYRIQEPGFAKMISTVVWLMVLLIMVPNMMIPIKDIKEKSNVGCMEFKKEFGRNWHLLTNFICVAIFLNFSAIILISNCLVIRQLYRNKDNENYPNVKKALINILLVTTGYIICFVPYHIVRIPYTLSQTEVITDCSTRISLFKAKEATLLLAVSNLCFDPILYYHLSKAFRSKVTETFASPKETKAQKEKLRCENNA

[5] = biological target: T5, 348 GPCRs (Homo sapiens, UniProt Q9GZP7)
T5 construct: expressed in transfected cells; host or cells: HEK293A
T5 sequence (Q9GZP7 1-353): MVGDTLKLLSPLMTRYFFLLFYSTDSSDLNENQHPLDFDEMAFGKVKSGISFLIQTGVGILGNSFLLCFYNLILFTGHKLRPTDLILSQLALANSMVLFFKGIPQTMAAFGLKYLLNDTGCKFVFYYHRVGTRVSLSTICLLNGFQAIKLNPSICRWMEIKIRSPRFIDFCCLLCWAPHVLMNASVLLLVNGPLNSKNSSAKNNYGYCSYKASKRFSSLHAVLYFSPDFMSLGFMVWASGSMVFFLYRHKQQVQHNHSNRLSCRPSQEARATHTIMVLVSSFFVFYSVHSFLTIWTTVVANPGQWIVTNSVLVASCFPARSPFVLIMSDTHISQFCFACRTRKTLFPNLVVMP

[6] = biological target: T6, 348 GPCRs (Homo sapiens, UniProt Q5T601)
T6 construct: expressed in transfected cells; host or cells: HEK293A
T6 sequence (Q5T601 20-910): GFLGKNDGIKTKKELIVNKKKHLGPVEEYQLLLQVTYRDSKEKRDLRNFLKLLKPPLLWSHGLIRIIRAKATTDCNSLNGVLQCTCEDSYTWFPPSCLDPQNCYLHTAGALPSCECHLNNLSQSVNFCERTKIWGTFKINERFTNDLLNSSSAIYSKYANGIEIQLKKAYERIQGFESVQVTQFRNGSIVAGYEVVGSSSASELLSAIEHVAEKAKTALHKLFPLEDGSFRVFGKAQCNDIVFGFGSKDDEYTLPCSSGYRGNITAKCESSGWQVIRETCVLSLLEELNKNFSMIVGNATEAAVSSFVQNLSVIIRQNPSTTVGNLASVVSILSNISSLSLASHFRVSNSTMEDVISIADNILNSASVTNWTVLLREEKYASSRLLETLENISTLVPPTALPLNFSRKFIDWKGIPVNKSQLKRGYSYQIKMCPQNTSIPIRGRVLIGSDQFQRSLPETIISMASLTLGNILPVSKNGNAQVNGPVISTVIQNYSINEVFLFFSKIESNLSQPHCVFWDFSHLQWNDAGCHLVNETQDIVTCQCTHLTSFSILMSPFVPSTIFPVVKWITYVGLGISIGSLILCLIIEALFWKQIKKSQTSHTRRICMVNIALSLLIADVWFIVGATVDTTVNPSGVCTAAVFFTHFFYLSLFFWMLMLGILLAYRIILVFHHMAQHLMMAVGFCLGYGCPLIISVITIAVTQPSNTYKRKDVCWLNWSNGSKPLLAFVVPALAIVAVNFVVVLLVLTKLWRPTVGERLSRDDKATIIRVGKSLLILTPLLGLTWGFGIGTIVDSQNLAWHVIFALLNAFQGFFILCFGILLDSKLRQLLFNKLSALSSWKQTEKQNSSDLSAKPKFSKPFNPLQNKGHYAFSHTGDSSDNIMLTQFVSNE

[7] = biological target: T7, 348 GPCRs (Homo sapiens, UniProt Q9HB89); conditions: 10µM, Favipiravir 100μM
T7 construct: expressed in transfected cells; host or cells: HEK293A
T7 sequence (Q9HB89 1-426): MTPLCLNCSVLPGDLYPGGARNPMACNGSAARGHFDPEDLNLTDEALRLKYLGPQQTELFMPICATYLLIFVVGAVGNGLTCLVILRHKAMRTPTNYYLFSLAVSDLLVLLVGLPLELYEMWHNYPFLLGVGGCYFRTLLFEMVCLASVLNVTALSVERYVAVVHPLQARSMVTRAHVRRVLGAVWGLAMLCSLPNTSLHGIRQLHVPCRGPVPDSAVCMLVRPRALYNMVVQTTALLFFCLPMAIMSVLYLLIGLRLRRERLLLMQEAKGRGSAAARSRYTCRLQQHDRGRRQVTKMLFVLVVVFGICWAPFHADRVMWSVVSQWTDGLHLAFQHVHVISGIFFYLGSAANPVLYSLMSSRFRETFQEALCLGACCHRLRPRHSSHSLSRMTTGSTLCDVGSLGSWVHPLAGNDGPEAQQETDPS

[8] = CCRL2 (chemokine (C-C motif) receptor-like 2), read-out: % GPCR activation compared to TPA
[9] = GPCR P2Y6 (pyrimidinergic receptor P2Y, G-protein coupled, 6), read-out: % GPCR activation compared to TPA
[10] = GPR144 (Adhesion G Protein-Coupled Receptor D2 (ADGRD2)), read-out: % GPCR activation compared to TPA
[11] = GPR171 (G Protein-Coupled Receptor 171), read-out: % GPCR activation compared to TPA
[12] = GPCR VN1R1 (vomeronasal 1 receptor), read-out: % GPCR activation compared to TPA
[13] = GPCR GPR110 (G-protein-coupled receptor 110 (ADGRF1)), read-out: % GPCR activation compared to TPA
[14] = NMUR1 (neuromedin U receptor 1), read-out: % GPCR activation compared to TPA
[15] = read-out: % GPCR activation compared to TPA, CCRL2 (chemokine (C-C motif) receptor-like 2)
[16] = read-out: % GPCR activation compared to TPA, GPCR P2Y6 (pyrimidinergic receptor P2Y, G-protein coupled, 6)
[17] = read-out: % GPCR activation compared to TPA, GPR144 (Adhesion G Protein-Coupled Receptor D2 (ADGRD2))
[18] = read-out: % GPCR activation compared to TPA, GPR171 (G Protein-Coupled Receptor 171)
[19] = read-out: % GPCR activation compared to TPA, GPCR VN1R1 (vomeronasal 1 receptor)
[20] = read-out: % GPCR activation compared to TPA, GPCR GPR110 (G-protein-coupled receptor 110 (ADGRF1))
[21] = read-out: % GPCR activation compared to TPA, NMUR1 (neuromedin U receptor 1)

SMILES: N#C[C@@]1(c2ccc3c(N)ncnn23)O[C@H](CO)[C@@H](O)[C@H]1O [GS441524]
- activation at 10 µM [1, 8]: 2.25%
- activation at 10 µM [2, 9]: -8.65%
- activation at 100 µM [3, 10]: -0.695%
- activation at 10 µM [4, 11]: -1.42%
- activation at 10 µM [5, 12]: 2.87%
- activation at 10 µM [6, 13]: -1.67%
- activation at 10 µM [7, 14]: -0.746%

SMILES: CC(C)OC(=O)[C@H](C)N[P@](=O)(OC[C@H]1O[C@@H](n2ccc(=O)[nH]c2=O)[C@](C)(F)[C@@H]1O)Oc1ccccc1 [sofosbuvir]
- activation at 10 µM [1, 15]: 1.66%
- activation at 10 µM [2, 16]: -26.6%
- activation at 100 µM [3, 17]: 0.00791%
- activation at 10 µM [4, 18]: -0.832%
- activation at 10 µM [5, 19]: -0.898%
- activation at 10 µM [6, 20]: 0.252%
- activation at 10 µM [7, 21]: -2.52%

SMILES: CCC(CC)COC(=O)[C@H](C)N[P@](=O)(OC[C@H]1O[C@@](C#N)(c2ccc3c(N)ncnn23)[C@H](O)[C@@H]1O)Oc1ccccc1 [remdesivir]
- activation at 10 µM [1, 15]: 0.0536%
- activation at 10 µM [2, 16]: 1.18%
- activation at 100 µM [3, 17]: 0.938%
- activation at 10 µM [4, 18]: 2.61%
- activation at 10 µM [5, 19]: 3.04%
- activation at 10 µM [6, 20]: -1.5%
- activation at 10 µM [7, 21]: 0.248%

SMILES: CC(C)C(=O)OC[C@H]1O[C@@H](n2ccc(NO)nc2=O)[C@H](O)[C@@H]1O [molnupiravir]
- activation at 10 µM [1, 8]: -0.522%
- activation at 10 µM [2, 9]: -17.8%
- activation at 100 µM [3, 10]: -1.45%
- activation at 10 µM [4, 11]: -2.4%
- activation at 10 µM [5, 12]: -1.19%
- activation at 10 µM [6, 13]: -0.00488%
- activation at 10 µM [7, 14]: -0.0262%

SMILES: NC(=O)c1nc(F)cnc1O [favipiravir, 6-fluoro-3-hydroxy-2-pyrazinecarboxamide]
- activation at 10 µM [1, 8]: 0.0461%
- activation at 100 µM ([2]; GPCR P2Y6 (pyrimidinergic receptor P2Y, G-protein coupled, 6), 100μM, read-out: % GPCR activation compared to TPA): -0.384%
- activation at 100 µM [3, 10]: -0.934%
- activation at 10 µM [4, 11]: -0.909%
- activation at 100 µM ([5]; GPCR VN1R1 (vomeronasal 1 receptor), 100μM, read-out: % GPCR activation compared to TPA): 1.77%
- activation at 100 µM ([6]; GPCR GPR110 (G-protein-coupled receptor 110 (ADGRF1)), 100μM, read-out: % GPCR activation compared to TPA): -3.88%
- activation at 10 µM [7, 14]: 0.18%
